Assay results reported in ChEMBL document CHEMBL1129051, “9-Dihydroxy-2,3,7,11b-tetrahydro-1H-naph[1,2,3-de]isoquinoline: a potent full dopamine D1 agonist containing a rigid-beta-phenyldopamine pharmacophore” (J Med Chem, 1996).

The molecules below were run against D(1A) dopamine receptor (Homo sapiens) (UniProt P21728) (assay: Hill slope was determined for the compound in D1 receptor binding assay).
D(1A) dopamine receptor (Homo sapiens), sequence (P21728 whole entry): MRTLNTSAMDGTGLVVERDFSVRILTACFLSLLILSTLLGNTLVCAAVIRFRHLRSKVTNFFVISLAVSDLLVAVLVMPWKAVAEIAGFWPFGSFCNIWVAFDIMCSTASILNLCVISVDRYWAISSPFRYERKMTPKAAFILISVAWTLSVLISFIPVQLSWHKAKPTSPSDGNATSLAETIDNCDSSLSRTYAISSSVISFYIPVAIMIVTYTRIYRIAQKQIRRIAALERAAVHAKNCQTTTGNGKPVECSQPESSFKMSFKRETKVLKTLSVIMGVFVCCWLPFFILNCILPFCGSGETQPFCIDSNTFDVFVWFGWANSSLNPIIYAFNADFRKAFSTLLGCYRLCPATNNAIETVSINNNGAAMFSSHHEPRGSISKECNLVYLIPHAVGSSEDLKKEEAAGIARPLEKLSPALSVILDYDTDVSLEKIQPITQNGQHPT
Oc1cc2c(cc1O)[C@@H](c1ccccc1)CNCC2 showed a nH of 0.75.
Molecule Oc1ccc2c(c1O)Cc1cccc3c1[C@H]2CNC3 has a nH of 0.66.
Oc1cc2c(cc1O)[C@H]1c3ccccc3CN[C@@H]1CC2 showed a nH of 0.65.
CN1CCc2cc(Cl)c(O)cc2[C@@H](c2ccccc2)C1 gave a nH of 1.05.

These molecules were tested against D(2) dopamine receptor (Homo sapiens) (UniProt P14416).
D(2) dopamine receptor (Homo sapiens), sequence (P14416 whole entry): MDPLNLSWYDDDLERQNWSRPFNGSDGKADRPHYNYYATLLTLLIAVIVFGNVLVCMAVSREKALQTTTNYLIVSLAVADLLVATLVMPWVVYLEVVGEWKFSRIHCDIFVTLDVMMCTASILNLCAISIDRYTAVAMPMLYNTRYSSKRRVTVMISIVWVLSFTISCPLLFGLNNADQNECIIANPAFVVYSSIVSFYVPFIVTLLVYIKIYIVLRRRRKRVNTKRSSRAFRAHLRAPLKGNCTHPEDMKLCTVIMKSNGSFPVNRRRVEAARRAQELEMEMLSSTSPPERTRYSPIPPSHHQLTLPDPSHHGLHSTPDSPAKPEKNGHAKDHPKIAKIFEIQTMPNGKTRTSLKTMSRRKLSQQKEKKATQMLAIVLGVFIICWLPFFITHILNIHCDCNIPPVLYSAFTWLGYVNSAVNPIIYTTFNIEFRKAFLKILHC
Description: Hill slope was determined for the compound in D2 receptor binding assay
Molecule CN(C)CCCN1c2ccccc2Sc2ccc(Cl)cc21 has a nH of 0.93.
Molecule Oc1cc2c(cc1O)[C@H]1c3ccccc3CN[C@@H]1CC2 has a nH of 0.72.
